Experimental data from EP2082991A1, “Method of Water Treatment” (Thermphos Trading GmbH, priority 2008, dated 2009).
Like-named read-outs stand apart in the source and are kept apart here.

Legend:
[1] = 22 hours at 90 °C, pH 5.5
Description: Brine/sea water compatibility.
This test assesses sea water compatibility of the phosphonates added at: 100; 1000; 10000; and 50000 ppm to North Sea water after 22 hours at 90 °C. Calcium left in solution is measured by ICP.
Test details are as follows: • prepare synthetic North Sea water at pH 5.5; • add the phosphonate at 100, 1000, 10000 and 50000 ppm active acid to the synthetic North Sea water solution; • prepare 5 blank solutions made by mixing the required amount of distilled water with North Sea water to obtain the same dilution as obtained by the addition of […], 1000, 10000 and 50000 ppm active acid phosphonate to the synthetic North Sea water solution; • the phosphonate samples with the respective phosphonates at the 4 concentrations as well as the 5 blanks are stored in an oven at 90 °C for a period of 22-24 hours; • upon completion of the test, the samples are observed visually; • after completion of the test, the pH values are being carefully monitored and 50 ml are drawn from each sample, filtered through a […] Millipore filter and stabilized at pH<2 by addition of 37 % aqueous hydrochloric acid; • Ca tolerance values are calculated as follows: % Ca tolerance = (Vi)/(V0) × 100 [formula] • where V0 = ppm Ca found in the blank solution; and • V1 = ppm Ca found in the solution with the phosphonate.

[2] = minimum concentration for full scale inhibition; 22 hours at 90 °C, pH 6; tested at 15, 30, 50, 70 and 100 ppm
Description: Barium sulphate scale inhibition.
This is a static test to evaluate the efficiency of phosphonates in preventing barium and strontium scale inhibition in oil field scaling conditions. The test is carried out by determining the amount of BaSO4 and SrSO4 that has precipitated after 22 hours at 90 °C in a 50/50 mixture of synthetic North Sea water and Formation water containing the phosphonates to be tested at 5 different concentrations. The amount of soluble Ba and Sr ions is determined by ICP. The results stand for the minimum phosphonate concentration for 100 % barium sulphate scale inhibition or give the scale inhibition at 100 ppm loading of phosphonate.
Test details are as follows:
Synthetic North Sea water:
• synthetic North Sea and Formation water are prepared having a pH of 6. These water solutions are preheated at 90 °C before starting the test. […] Then add to this glass bottle 50 ml of Formation water; • also prepare one blank solution by mixing 50 ml of North Sea water with 50 ml of Formation water; • put the sample bottles in an oven for 22 hours at 90 °C; • after 22 hours, take 3 ml of each test solution from the surface, filter through a 0.45 µm Millipore filter and add to a stabilizing solution.

[3] = 1 % active acid phosphonate in synthetic North Sea water, pH 5.5, 140 °C, one week
Description: Thermal stability assessment.
This is a test to assess the thermal stability of phosphonates in the presence of synthetic North Sea water. The test is carried out by submitting mixtures of North Sea water and phosphonates stabilized at pH 5.5 to a one week heating at 140 °C. The thermal degradation is determined by ^31P NMR analysis.

[4] = minimum phosphonate concentration for 100% calcium carbonate scale inhibition; 22 hours at 50°C, pH 9
Description: Testing method for calcium carbonate scale inhibition.
This is a static test to evaluate the efficiency of phosphonates in preventing calcium carbonate scale inhibition in industrial water treatment conditions. The test is carried out by determining the amount of CaCO3 that has precipitated after 22 hours at 50°C in a 50/50 mixture of cationic and anionic waters with the test phosphonates at 5 different concentrations. The amount of soluble Ca ions is analyzed by titration. Result indicates the % Ca scale inhibition provided by the 5 phosphonate concentrations. Reported results give the minimum phosphonate concentration for 100% calcium carbonate scale inhibition.
• Cationic and anionic waters are prepared at pH 9.

[5] = Peroxide stabilization procedure (perborate/TAED with iron, 40°C, thiosulphate titration); conditions: 35 ppm phosphonate
Description: Peroxide stabilization procedure
In a 250 ml glass bottle filled with 200ml deionised water stabilized at 40°C add the following ingredients: […], 35ppm of the tested bleach stabilizer, 0.53g of sodium bicarbonate, 0.42g of sodium carbonate, 0.14g of sodium perborate tetrahydrate and 0.06g of tetra-acetyl ethylene diamine (TAED). Dissolve these ingredients in the water by using an ultrasonic bath. After one minute of such treatment the bottle is transferred to the water bath set at 40°C and samples (10 ml each) are taken from the test bottle 2, 6,10,15,20 and 30 minutes thereafter. To these samples are added 10ml of 1M potassium iodide and 10ml of 20% aqueous sulphuric acid before immediate titration with a standardized 0.01N thiosulphate solution.

[6] = 100 ppm phosphonate in North Sea water
[7] = 1000 ppm phosphonate in North Sea water
[8] = 10000 ppm phosphonate in North Sea water
[9] = 50000 ppm phosphonate in North Sea water

SMILES | Ca Tolerance in % [1, 6] | Ca Tolerance in % [1, 7] | Ca Tolerance in % [1, 8] | Ca Tolerance in % [1, 9] | Ba Scale Inhibition: ppm phosphonate needed for 100% BaSO4 scale inhibition [2] | Thermal Stability at 140°C 1 week Decomposition in % [3] | Ca Scale Inhibition [4] | % remaining act.oxygen ([5]; 0 min) | % remaining act.oxygen ([5]; 2 min) | % remaining act.oxygen ([5]; 6 min) | % remaining act.oxygen ([5]; 10 min) | % remaining act.oxygen ([5]; 15 min) | % remaining act.oxygen ([5]; 20 min) | % remaining act.oxygen ([5]; 30 min)
O=P(O)(O)CN(CCCCC(CCCN(CP(=O)(O)O)CP(=O)(O)O)CN(CP(=O)(O)O)CP(=O)(O)O)CP(=O)(O)O (centres unmarked) [AMODHMPA, 4-Aminomethyl 1,8-octane diamine hexa (methylene phosphonic acid)] | 99% | 83% | 21% | 100% | 30ppm full scale | 8.8% | – | – | – | – | – | – | – | –
O=P(O)(O)CN(CCN(CP(=O)(O)O)CP(=O)(O)O)CCN(CP(=O)(O)O)CP(=O)(O)O [Dequest 2066A, diethylene triaminopentamethylene phosphonate] | 100% | 89% | 24% | 100% | 15ppm full scale | 24% | 2 ppm full scale | – | – | – | – | – | – | –
O=P([O-])(O)CN(CCN(CCN(CP(=O)(O)O)CP(=O)(O)O)CP(=O)(O)O)CP(=O)(O)O.[Na+] [Dequest 2066] | – | – | – | – | – | – | – | 100% | 100% | 99% | 97% | 95% | 94% | 90%
O=P(O)(O)CN(CCO)CP(=O)(O)O [HEIBMPA, 2-Hydroxy ethyl imino bis (methylene phosphonic acid)] | 100% | 79% | 100% | 100% | 30ppm full scale | 19% | – | – | – | – | – | – | – | –
